This is an account of results in the supplement of paper PMC9151546.

Structures are written as SMILES.

Experiment [1] relates to CHO-K1. Nature of the experiment: benchmark concentration for 30% increase in micronucleus frequency (BMC30); higher = less potent clastogen. Here is the method:
(§1)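 Benchmark concentration modelling (PROAST, Hill/exponential model families) of the 19-concentration flow-cytometric micronucleus assay in CHO-K1 cells, with and without rat liver S9. Only non-cytotoxic and adequate (relative survival >=40%) concentrations were used. BMR was a 30% increase in %MN (BMC30) or a 60% increase in %hypodiploid (BMC60) over control.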

Experiment [2] relates to CHO-K1. The experiment is described as follows: benchmark concentration for 60% increase in hypodiploid frequency (BMC60); higher = less potent aneugen. The procedure: as §1
[3] abbreviates: S9 metabolic activation: with S9.
The mark [4] stands for this setting: S9 metabolic activation: without S9.

With `COCCOCCOC` [Bis(2-methoxyethyl) ether], the benchmark concentration in the experiment on CHO-K1 [1] (setting [3]) is 72 µM.

Compound `CCCCCCCCCCCCCCCS(=O)(=O)Oc1ccccc1` [C10-21 sulfonic acids phenyl esters] showed a benchmark concentration in the experiment on CHO-K1 [1] (setting [4]) of 130 µM.

Turning to `Oc1cccc2cccnc12` [8-Hydroxyquinoline], the figures for the benchmark concentration in the experiment with CHO-K1 [1] (setting [3]) and in the experiment with CHO-K1 [1] (setting [4]) were 16 µM and 26 µM, respectively.

`O=C(O)C1C(C(=O)O)C2(Cl)C(Cl)=C(Cl)C1(Cl)C2(Cl)Cl` (stereo not given) [Chlorendic acid]: the benchmark concentration was 110 µM in the experiment with CHO-K1 [1] (setting [4]) and 97 µM in the experiment on CHO-K1 [2] (setting [4]).

With `Oc1cc(Cl)ccc1Oc1ccc(Cl)cc1Cl` [Triclosan], in the experiment on CHO-K1 [1] (setting [3]), the benchmark concentration turned out to be 40 µM.

For `ClC1=C(Cl)C2(Cl)C3C4OC4C(Cl)C3C1(Cl)C2(Cl)Cl` (stereo not given) [Heptachlor epoxide], the values for the benchmark concentration with CHO-K1 [1] (setting [3]), in the experiment on CHO-K1 [1] (setting [4]) and in the experiment on CHO-K1 [2] (setting [4]) were 45 µM, 25 µM and 28 µM, respectively.

Consider `O=P1(N(CCCl)CCCl)NCCCO1` (stereo not given) [Cyclophosphamide monohydrate], for which the benchmark concentration in the experiment on CHO-K1 [1] (setting [4]) amounted to 91 µM.

Regarding `Nc1cccc2c(N)cccc12` [1,5-Naphthalenediamine], the benchmark concentration stood at 8.6 µM in the experiment on CHO-K1 [1] (setting [3]) and 66 µM in the experiment on CHO-K1 [2] (setting [4]).

Consider `COc1ccc(C)cc1N` [2-Methoxy-5-methylaniline], for which the benchmark concentration was 48 µM in the experiment with CHO-K1 [1] (setting [4]) and 89 µM in the experiment on CHO-K1 [2] (setting [4]).

In the case of `ClC1=C(Cl)C2(Cl)C3C(Cl)C=CC3C1(Cl)C2(Cl)Cl` (stereo not given) [Heptachlor], the benchmark concentration in the experiment on CHO-K1 [1] (setting [3]) stood at 11 µM; with CHO-K1 [1] (setting [4]) it was 64 µM; with CHO-K1 [2] (setting [3]), 19 µM; in the experiment with CHO-K1 [2] (setting [4]), 20 µM.

Turning to `Nc1ccc(Cl)cc1` [4-Chloroaniline], the benchmark concentration came out at 63 µM with CHO-K1 [1] (setting [4]) and 31 µM in the experiment on CHO-K1 [2] (setting [4]).

In turn, `CC(N)=O` [Acetamide] displayed a benchmark concentration in the experiment with CHO-K1 [1] (setting [4]) of 5.8 µM.

Consider `CC(C)(c1cc(Br)c(O)c(Br)c1)c1cc(Br)c(O)c(Br)c1` [3,3',5,5'-Tetrabromobisphenol A], for which the benchmark concentration with CHO-K1 [1] (setting [4]) was determined as 44 µM; in the experiment with CHO-K1 [2] (setting [3]) it was 28 µM; in the experiment on CHO-K1 [2] (setting [4]) it was 37 µM.

Consider `Cc1cccc([N+](=O)[O-])c1C` [1,2-Dimethyl-3-nitrobenzene], for which the benchmark concentration with CHO-K1 [1] (setting [3]) is 59 µM; in the experiment with CHO-K1 [1] (setting [4]) it was 41 µM; in the experiment with CHO-K1 [2] (setting [4]), 38 µM.

`Cc1ccc(O)c(C)c1` [2,4-Dimethylphenol] registered a benchmark concentration with CHO-K1 [1] (setting [4]) of 79 µM.

As for `O=c1[nH]cc(F)c(=O)[nH]1` [5-Fluorouracil], the benchmark concentration in the experiment on CHO-K1 [1] (setting [4]) amounted to 110 µM; in the experiment with CHO-K1 [2] (setting [4]), 99 µM.

On to `Oc1ccccc1` [Phenol], for which the benchmark concentration in the experiment on CHO-K1 [1] (setting [4]) was found to be 100 µM; with CHO-K1 [2] (setting [4]), 57 µM.

`CCCCC=O` [Pentanal]: the figures for the benchmark concentration in the experiment with CHO-K1 [1] (setting [3]) and in the experiment with CHO-K1 [2] (setting [4]) were 60 µM and 140 µM, respectively.

`CC(C)(C)c1cc(O)ccc1O` [tert-Butylhydroquinone]: the benchmark concentration in the experiment on CHO-K1 [1] (setting [3]) amounted to 22 µM; with CHO-K1 [2] (setting [3]), 23 µM.

In the case of `O=C(O)C(Cl)Cl` [Dichloroacetic acid], the benchmark concentration was determined as 94 µM in the experiment on CHO-K1 [1] (setting [4]) and 95 µM in the experiment on CHO-K1 [2] (setting [4]).

For the compound `CCOc1ccc2c(c1)C(C)=CC(C)(C)N2` [Ethoxyquin], the benchmark concentration in the experiment with CHO-K1 [1] (setting [3]) is 86 µM; with CHO-K1 [1] (setting [4]), 55 µM.

Take `Nc1ccc([N+](=O)[O-])cc1` [4-Nitroaniline]: the benchmark concentration came out at 11 µM with CHO-K1 [1] (setting [4]) and 100 µM in the experiment with CHO-K1 [2] (setting [4]).

Regarding `Nc1ccc(-c2ccc(N)cc2)cc1` [Benzidine], the benchmark concentration with CHO-K1 [1] (setting [4]) and in the experiment with CHO-K1 [2] (setting [4]) was 18 µM in each case.

For the compound `Oc1ccc(Cl)cc1Cl` [2,4-Dichlorophenol], the benchmark concentration worked out at 17 µM in the experiment on CHO-K1 [1] (setting [3]), 17 µM in the experiment with CHO-K1 [1] (setting [4]) and 20 µM with CHO-K1 [2] (setting [4]).

Turning to `Cc1cc(O)ccc1Cl` [4-Chloro-3-methylphenol], the benchmark concentration with CHO-K1 [1] (setting [3]) stood at 18 µM; with CHO-K1 [1] (setting [4]), 41 µM; in the experiment on CHO-K1 [2] (setting [4]) it was 46 µM.

Turning to `Oc1ccc(O)cc1` [Hydroquinone], the values for the benchmark concentration with CHO-K1 [1] (setting [3]) and in the experiment on CHO-K1 [2] (setting [3]) were 63 µM and 90 µM, respectively.

On to `CC(C)(c1ccccc1)c1ccc(O)cc1` [4-Cumylphenol], for which the benchmark concentration in the experiment with CHO-K1 [1] (setting [4]) came to 26 µM; in the experiment with CHO-K1 [2] (setting [4]), 44 µM.
